Experimental data published in patent US20210063420A1, “Human Neural Organoid Platform for Detecting Drugs of Abuse Disorder Susceptibility and Therapeutic Countermeasure and Non-Addictive Pain Medication Development” (Rene Anand, priority 2019, published 2021).

Tested on: human iPSC-derived brain organoids
Experimental: All cpm data are normalized data and the reads are a direct representation of the abundance of the RNA for each gene.
Transcriptomic data from these neural organoids were obtained. […] Detailed data analysis using Gene Card and Pubmed data bases were performed.

CN1CCCC1c1cccnc1 (stereo not drawn) [nicotine]
expression of a set of genes for proteins involved in the development of midbrain dopaminergic neurons (VTA and SNpc) (chronic nicotine exposure of human iPSC-derived brain organoids): increases the expression
change in gene expression versus 0 (control) (exposure for 4 weeks to nicotine at 50 nanomolar, 500 nanomolar and 1 micromolar in the growth media, identified responsive genes): greater than 1.4 fold
expression of a subset of genes (Nurr 1, Lmx1a, Lmx1b, Neurog2, OTX2, Nolz1, NDNF) (human neural organoids, preliminary data): upregulated
